Measurements: ChEMBL document CHEMBL4312024, “Optimization of piperazine-derived ureas privileged structures for effective antiadenovirus agents” (Eur J Med Chem, 2020)

How the values were obtained:
[1] = Selectivity Index, ratio of CC50 for human A549 cells to IC50 for Human adenovirus 5 infected in HEK293beta5 cells coexpressing GFP; assay type: toxicity, cell-based; conditions: read-out: Ratio CC50/IC50
[2] = tested on: Human adenovirus 5; assay: Antiviral activity against Human adenovirus 5 infected in HEK293beta5 cells coexpressing GFP assessed as inhibition of plaque formation at 10 uM incubated for 7 days relative to control; assay type: functional; conditions: Human mastadenovirus C, 168 h
[3] = Cytotoxicity against human A549 cells assessed as reduction in cell viability incubated for 48 hrs by alamarBlue assay; assay type: cell-based
[4] = tested on: Human adenovirus 5; assay: Antiviral activity against Human adenovirus 5 infected in A549 cells assessed as fold reduction in virus yield at 50 uM incubated for 48 hrs by endpoint dilution method relative to control; assay type: functional

| SMILES | selectivity ratio [1] | inhibition at 10 µM [2] | CC50 at 48 h [3] | fold change (FC) [4] |
| --- | --- | --- | --- | --- |
| O=C(c1cc2ccccc2o1)N1CCN(C(=O)Nc2cc(C(F)(F)F)ccc2Cl)C(c2ccccc2)C1 (stereo not given) | 116 |  |  |  |
| CC1CN(C(=O)OC(C)(C)C)CCN1C(=S)Nc1cc(C(F)(F)F)cc(C(F)(F)F)c1 (stereo not given) |  | 11.1% |  |  |
| N#Cc1ccc(NC(=S)N2CCN(C(=O)CC3CCCCC3)CC2c2ccccc2)cc1 (stereo not given) |  | 80% | 65.3 µM |  |
| CC1CN(C(=O)c2cc3ccccc3o2)CCN1C(=S)Nc1ccc(F)cc1 (stereo not given) |  | 85% | 75.4 µM |  |
| O=C(c1cc2ccccc2o1)N1CCN(C(=O)c2cc3ccccc3o2)C(c2ccccc2)C1 (stereo not given) |  | 19.4% |  |  |
| O=C(Cc1ccccc1)N1CCN(C(=S)Nc2ccc([N+](=O)[O-])cc2)C(c2ccccc2)C1 (stereo not given) |  | 5.5% |  |  |
| CC1CN(C(=O)CC2CCCCC2)CCN1C(=S)Nc1ccc([N+](=O)[O-])cc1 (stereo not given) |  | 82.6% | 148 µM |  |
| O=C(c1cc2ccccc2o1)N1CCN(C(=O)Nc2ccc([N+](=O)[O-])cc2)C(c2ccccc2)C1 (stereo not given) | 93.5 | 100% |  |  |
| CC(C)(C)OC(=O)N1CCN(C(=S)Nc2ccc(F)cc2)C(c2ccccc2)C1 (stereo not given) |  | 27.5% |  |  |
| O=C(CC1CCCCC1)N1CCN(C(=O)Nc2ccc([N+](=O)[O-])cc2)C(c2ccccc2)C1 (stereo not given) |  | 98.9% | 71.8 µM |  |
| CC1CN(C(=O)OC(C)(C)C)CCN1C(=S)Nc1ccc([N+](=O)[O-])cc1 (stereo not given) |  | 100% |  |  |
| CC1CN(C(=O)c2cc3ccccc3o2)CCN1C(=S)Nc1ccc(C(F)(F)F)cc1 (stereo not given) |  | 100% | 46.3 µM |  |
| Cc1ccc(NC(=S)N2CCN(C(=O)CC3CCCCC3)CC2c2ccccc2)cc1 (stereo not given) |  | 15% |  |  |
| CC1CN(C(=O)CC(C)(C)C)CCN1C(=S)Nc1cc(C(F)(F)F)cc(C(F)(F)F)c1 (stereo not given) |  | 4.81% |  |  |
| O=C(Nc1cc(C(F)(F)F)ccc1Cl)N1CCN(C(=O)Nc2cc(C(F)(F)F)ccc2Cl)C(c2ccccc2)C1 (stereo not given) |  | 90.4% | 200 µM |  |
| COc1ccc(NC(=S)N2CCN(C(=O)OC(C)(C)C)CC2C)cc1 (stereo not given) |  | 36.5% |  |  |
| CC1CN(C(=O)CC2CCCCC2)CCN1C(=S)Nc1ccc(C(F)(F)F)cc1 (stereo not given) |  | 88.9% | 142 µM |  |
| CC1CN(C(=O)CC2CCCCC2)CCN1C(=S)Nc1cc(C(F)(F)F)cc(C(F)(F)F)c1 (stereo not given) |  | 100% | 82.4 µM |  |
| N#Cc1ccc(NC(=O)N2CCN(C(=O)c3cc4ccccc4o3)CC2c2ccccc2)cc1 (stereo not given) | 53.3 |  |  | 34.5 |
| CC1CN(C(=O)CC2CCCCC2)CCN1C(=S)Nc1ccc(Cl)cc1 (stereo not given) |  | 89.3% | 200 µM |  |

| SMILES | selectivity ratio [1] | inhibition at 10 µM [2] | CC50 at 48 h [3] | fold change (FC) [4] |
| --- | --- | --- | --- | --- |
| CC1CN(C(=O)CC(C)(C)C)CCN1C(=S)Nc1ccc(F)cc1 (stereo not given) |  | 7.5% |  |  |
| CC1CN(C(=O)CC(C)(C)C)CCN1C(=S)Nc1ccc([N+](=O)[O-])cc1 (stereo not given) |  | 76.2% |  |  |
| CC(C)(C)OC(=O)N1CCN(C(=O)Nc2ccccc2[N+](=O)[O-])CC1 |  | 15% |  |  |
| O=C(Cc1ccccc1)N1CCN(C(=O)Nc2cc(C(F)(F)F)ccc2Cl)C(c2ccccc2)C1 (stereo not given) |  | 100% | 64.5 µM |  |
| CC(C)(C)CC(=O)N1CCN(C(=S)Nc2cc(C(F)(F)F)cc(C(F)(F)F)c2)C(c2ccccc2)C1 (stereo not given) |  | 100% | 91.8 µM |  |
| CC(C)(C)OC(=O)N1CCN(C(=O)Nc2ccc([N+](=O)[O-])cc2)C(c2ccccc2)C1 (stereo not given) | 47.3 |  |  |  |
| CC1CN(C(=O)CC(C)(C)C)CCN1C(=S)Nc1ccc(C#N)cc1 (stereo not given) |  | 51% |  |  |
| O=C(c1cc2ccccc2o1)N1CCN(C(=O)Nc2ccc(Cl)cc2)C(c2ccccc2)C1 (stereo not given) | 42.7 |  |  | 16.9 |
| O=C(Nc1ccccc1[N+](=O)[O-])N1CCN(C(=O)c2cc3ccccc3o2)CC1 |  | 41.5% |  |  |
| CC1CN(C(=O)c2cc3ccccc3o2)CC(C)N1C(=O)Nc1cc(C(F)(F)F)ccc1Cl (stereo not given) |  | 0% |  |  |
| COc1ccc(NC(=S)N2CCN(C(=O)CC(C)(C)C)CC2C)cc1 (stereo not given) |  | 58.1% |  |  |
| O=C(Cc1ccccc1)N1CCN(C(=O)Nc2ccc([N+](=O)[O-])cc2)C(c2ccccc2)C1 (stereo not given) |  | 82.6% | 174 µM |  |
| CC1CN(C(=O)CC(C)(C)C)CCN1C(=S)Nc1ccc(C(F)(F)F)cc1 (stereo not given) |  | 36.3% |  |  |
| CC1CN(C(=O)Cc2ccccc2)CCN1C(=S)Nc1ccc(F)cc1 (stereo not given) |  | 100% | 26.3 µM |  |
| CC1CN(C(=O)c2cc3ccccc3o2)CC(C)N1C(=O)Nc1ccc([N+](=O)[O-])cc1 (stereo not given) |  | 12.2% |  |  |
| O=C(Nc1ccc([N+](=O)[O-])cc1)N1CCN(C(=O)c2cc3ccccc3o2)CC1 |  | 0% |  |  |
| COc1ccc(NC(=S)N2CCN(C(=O)CC3CCCCC3)CC2C)cc1 (stereo not given) |  | 25.5% |  |  |
| CC1CN(C(=O)c2cc3ccccc3o2)CCN1C(=S)Nc1ccc(C#N)cc1 (stereo not given) |  | 100% | 25.5 µM |  |
| CC1CN(C(=O)c2cc3ccccc3o2)CC(C)N1C(=O)Nc1ccc(Cl)c(C(F)(F)F)c1 (stereo not given) |  | 0% |  |  |
| CC(C)(C)CC(=O)N1CCN(C(=O)Nc2ccc([N+](=O)[O-])cc2)C(c2ccccc2)C1 (stereo not given) |  | 74.4% | 72 µM |  |

| SMILES | selectivity ratio [1] | inhibition at 10 µM [2] | CC50 at 48 h [3] | fold change (FC) [4] |
| --- | --- | --- | --- | --- |
| Cc1ccc(NC(=O)N2C(C)CN(C(=O)c3cc4ccccc4o3)CC2C)cc1 (stereo not given) |  | 0% |  |  |
| CC1CN(C(=O)c2cc3ccccc3o2)CC(C)N1C(=O)Nc1ccccc1[N+](=O)[O-] (stereo not given) |  | 72.2% |  |  |
| Cc1ccc(NC(=S)N2CCN(C(=O)CC(C)(C)C)CC2C)cc1 (stereo not given) |  | 76.8% |  |  |
| CC1CN(C(=O)Cc2ccccc2)CCN1C(=S)Nc1ccc(C(F)(F)F)cc1 (stereo not given) |  | 73.4% |  |  |
| Cc1ccc(NC(=S)N2CCN(C(=O)OC(C)(C)C)CC2C)cc1 (stereo not given) |  | 49.1% |  |  |
| CC1CN(C(=O)OC(C)(C)C)CCN1C(=S)Nc1ccc(C#N)cc1 (stereo not given) |  | 88.9% | 175 µM |  |
| CC1CN(C(=O)OC(C)(C)C)CCN1C(=S)Nc1ccc(C(F)(F)F)cc1 (stereo not given) |  | 73.4% |  |  |
| CC1CN(C(=O)OC(C)(C)C)CCN1C(=S)Nc1ccc(Cl)cc1 (stereo not given) |  | 73.4% |  |  |
| CC1CN(C(=O)c2cc3ccccc3o2)CCN1C(=S)Nc1ccc([N+](=O)[O-])cc1 (stereo not given) |  | 100% | 20 µM |  |
| O=C(Nc1cc(C(F)(F)F)ccc1Cl)N1CCN(C(=O)Nc2cc(C(F)(F)F)ccc2Cl)CC1 |  | 33.9% |  |  |
| N#Cc1ccc(NC(=S)N2CCN(C(=O)Cc3ccccc3)CC2c2ccccc2)cc1 (stereo not given) |  | 64% |  |  |
| COc1ccc(NC(=S)N2CCN(C(=O)Cc3ccccc3)CC2C)cc1 (stereo not given) |  | 88.9% | 175 µM |  |
| O=C(c1cc2ccccc2o1)N1CCN(C(=O)c2cc3ccccc3o2)CC1 |  | 51.5% |  |  |
| CC1CN(C(=O)Cc2ccccc2)CCN1C(=S)Nc1ccc(Cl)cc1 (stereo not given) |  | 84.6% | 175 µM |  |
| CC(C)(C)CC(=O)N1CCN(C(=O)Nc2ccccc2[N+](=O)[O-])C(c2ccccc2)C1 (stereo not given) |  | 100% | 63.3 µM |  |
| Cc1ccc(NC(=S)N2CCN(C(=O)Cc3ccccc3)CC2C)cc1 (stereo not given) |  | 92.9% | 200 µM |  |
| O=C(CC1CCCCC1)N1CCN(C(=S)Nc2ccc(F)cc2)C(c2ccccc2)C1 (stereo not given) |  | 5% |  |  |
| CC1CN(C(=O)c2cc3ccccc3o2)CC(C)N1C(=O)Nc1ccc(C#N)cc1 (stereo not given) |  | 10% |  |  |
| CC1CN(C(=O)CC(C)(C)C)CCN1C(=S)Nc1ccc(Cl)cc1 (stereo not given) |  | 61.6% |  |  |
| CC1CN(C(=O)c2cc3ccccc3o2)CC(C)N1C(=O)Nc1ccc(Cl)cc1 (stereo not given) |  | 81.1% | 113 µM |  |
